These are literature values, as cited in patent US8153634B2, “Carbinol derivatives having cyclic linker” (Kowa Company, Ltd., priority 2008, dated 2012).

The subject of this series is LXRβ (versus LXRα). The settings on record: reported in non-patent document 22.

`O=C(O)Cc1ccc(COc2cccc(-c3c(Cc4ccccc4)cnc4c(C(F)(F)F)cccc34)c2)cc1` [WAY-254011]: the “LXRβ-selective binding affinity, α/β ratio” value was 1 to 5.
